Data as given in patent EP0353668A2, “Process for the preparation of N,N-bis(alkoxyalkyl) diamides of pyridine-2,4-dicarboxylic acid” (HOECHST AKTIENGESELLSCHAFT, priority 1988, dated 1990).

Experiment: in vivo
Parameters: species or system Wistarratten
Procedure: Es wurde festgestellt, daß die Verbindungen der Formel I außergewöhnlich gute enterale Resorbierbarkeiten aufweisen. Die Resorbierbarkeit wurde an Wistarratten untersucht, denen N,N′-Bis-(2-methoxy ethyl)pyridin-2,4-dicarbonsäureamid intragastral verabreicht wurde. Der Serumspiegel sank in den ersten Stunden nach Verabreichung der Substanz ab und ereichte nach ca. 5 Stunden ein nur noch leicht abfallendes Platteau.
Weibliche Wistarratten von ca. 150 g Körpergewicht erhalten 50 mg/kg N,N′-Bis(2-methoxyethyl)pyridin-2,4-dicarbonsäurediamid mittels Schlundsonde intragastral verabreicht. Es werden nach 0; 0,25; 0,5; 1; 3; 4; 5; 6; 8 und 14 Stunden jeweils 4 Ratten narkotisiert und über die Vena Cava entblutet. Das Blut wird sofort zentrifugiert und N,N′-Bis(2-methoxyethyl)pyridin-2,4-dicarbonsäurediamid mit Ether aus dem Serum extrahiert. Nach Verdampfen des Ethers wird der Rückstand in […] Fliessmittel aufgenommen. Das Fliessmittel besteht aus 0,05 M Phosphorsäure und Acetonitril (4:1). Von dieser Probe werden 50 µl in eine HPLC-Säule injiziert. Die Detektion erfolgt bei UV 200 nm und einer Retentionszeit von 2,2 min. Die Ergebnisse sind in der Tabelle 1 und der Figur 1 dokumentiert. Tabelle 1

Zeit bis der Serumspiegel ein nur noch leicht abfallendes Platteau erreichte: ca. 5 Stunden
enterale Resorbierbarkeit: gute Resorbierbarkeit
concentration at 0.25 h (rat, po, 50 mg/kg): 38700 ng/mL
concentration at 0.5 h (rat, po, 50 mg/kg): 32400 ng/mL
concentration at 1 h (rat, po, 50 mg/kg): 15600 ng/mL
concentration at 3 h (rat, po, 50 mg/kg): 700 ng/mL
concentration at 4 h (rat, po, 50 mg/kg): 3300 ng/mL
concentration at 5 h (rat, po, 50 mg/kg): 500 ng/mL
concentration at 6 h (rat, po, 50 mg/kg): 600 ng/mL
concentration at 8 h (rat, po, 50 mg/kg): 500 ng/mL
concentration at 14 h (rat, po, 50 mg/kg): 300 ng/mL
Compound: COCCNC(=O)c1ccnc(C(=O)NCCOC)c1 [N,N′-Bis(2-methoxyethyl)pyridin-2,4-dicarbonsäurediamid]
